Measured values: patent US20180021234A1, “Oral Care Compositions and Methods of Use” (Colgate-Palmolive Company, priority 2015, published 2018)

Legend:
[1] = tested on: biofilms formed from native saliva on hydroxyapatite (HAP) disks; test: Active-attachment biofilm model, lactic acid production (residual metabolic activity); type: cell-based; conditions: for metabolic activity relative to control groups (water) and variable groups: Example 5
Description: (§1) The active-attachment biofilm model has been previously described by Extercate et al. Caries Research 2010; 44: 372-379, the contents of which are incorporated by reference herein. The biofilm model consists of a metal lid with 24 clamps carrying hydroxyapatite (HAP) disks. The model is inoculated in 24-well plates with native saliva. Biofilms were formed via active recruitment of bacteria onto free-hanging HAP disks.
(§2) Treatment is performed after formation of a 24 h biofilm. Lactic acid production is determined to assess the residual metabolic activity of biofilms after repeated exposure to test products. The assay is conducted using a L-Lactate Assay Kit according to the manufacturer's protocol (Cayman Chemical Company, Cat. No. 700510).
The anti-metabolic activity of arginine alone and combined with zinc on bacteria in solutions and in toothpastes is measured by lactic acid production during a 3-hour window after the last treatment. The bacterial metabolic activity, as measured by lactic acid production, decreases in (toothpaste) groups with:
The antibacterial activity of serine and lysine is assessed individually and in combination with zinc and determined by lactic acid production during a 3-hour window after the last treatment according to Example 1.
The anti-metabolic activity of serine and lysine individually, and in combination with zinc, are tested. Using the biofilm model described in Example 1, antibacterial activity of serine and lysine is tested individually and in combination with zinc.

[2] = tested on: biofilms formed from native saliva on hydroxyapatite (HAP) disks; test: Active-attachment biofilm model, colony forming units (live counts); type: cell-based; conditions: for number of CFUs relative to control solutions (water) and variable groups: Example 4; for number of CFUs relative to control solutions (water) and variable groups / Log CFU/ml: solutions; for Log CFU/ml: Example 4 (serine, lysine, with or without zinc)
Description: as §1, §2
Colony forming units (CFUs) are determined to assess the anti-bacterial efficacy of test solutions after repeated exposure to biofilms. HAP disks are removed from the lid and transferred to 1.5 ml CPW for sonication. CFUs are determined by colony counting. Statistical analysis was performed using Minitab 16 Software. ANOVA and Tukey test were performed on available CFU counts and lactic acid values.
Anti-bacterial efficacy of arginine alone and in combination with zinc in solutions and in toothpastes is tested by live counts using the biofilm model described in Example 1. The approximate number of live counts (CFUs) are as follows: […]

[3] = solution, lactic acid production during a 3-hour window after the last treatment
[4] = solutions, Example 5 (serine, lysine, with or without zinc)

SMILES | Lactate [1, 3] | CFU/ml ([2]; solution, live counts, biofilm model of Example 1) | metabolic activity relative to control groups (water) and variable groups ([1]; solutions) | Lactate [1, 4] | number of CFUs relative to control solutions (water) and variable groups [2] | Log CFU/ml [2]
O=C([O-])CC(O)(CC(=O)[O-])C(=O)[O-].O=C([O-])CC(O)(CC(=O)[O-])C(=O)[O-].[Zn+2].[Zn+2].[Zn+2] [0.25% zinc citrate, zinc citrate] | 6.0 mM | – | – | – | – | –
[O-2].[Zn+2] [0.5% zinc oxide, zinc oxide] | 6.25 mM | 9.65 Log CFU/ml | – | – | – | –
N[C@@H](CO)C(=O)O [4% serine, serine] | – | – | do not demonstrate a decrease in metabolic activity | 2.4 mM | do not demonstrate a decrease | 9.45 Log CFU/ml
NCCCC[C@H](N)C(=O)O [4% lysine, lysine] | – | – | do not demonstrate a decrease in metabolic activity | 2.7 mM | do not demonstrate a decrease | 9.37 Log CFU/ml
